*1 amine or outer side, *2 acyl side, *3 side chain or, on linkers, in order; H or OH if unused. Where a SMILES comes first, the peptide text is derived from it. Bridges are numbered along the chain shown (N, C = ends). [ ]: non-standard residue; d: D form. 1Nal = N[C@@H](Cc1cccc2ccccc12)C(=O)O; TBMB = c1c(C[*:1])cc(C[*:3])cc1C[*:2]; Tle = CC(C)(C)[C@H](N)C(=O)O; βAla = NCCC(=O)O; Sar = CNCC(=O)O
Assays:
MMP1 [1] = biological target: T1, MMP1 (Homo sapiens, UniProt P03956); assay: Binding to related MMP family member
Experimental: (§1) A bicyclic constrained peptide binder (Bicycle) was identified that binds to the hemopexin domain of MT1 with an apparent Kd of approximately 2 nM. […] Bicycle drug conjugates (BDCs) with a variety of linkers and cytotoxic payloads were prepared which retained binding to MT1.

MMP24 = MMP24 (Homo sapiens, UniProt Q9Y5R2); assay: Binding to related MMP family member
Experimental: as §1

MMP2 [2] = biological target: T2, MMP2 (Homo sapiens, UniProt P08253); assay: Binding to related MMP family member
Experimental: as §1

catalytic domain (MT1) = assay: Bicycle peptide binding to catalytic domain
Experimental: as §1

MT1 = MT1 (Homo sapiens, UniProt P50281); assay: Effect on catalytic activity of the protease in vitro; type: biochemical
Experimental: as §1

[3] = system: cell migration or invasion; assay: Effect on cell migration or invasion; type: cell-based; conditions: in vitro
Experimental: as §1

Pro-MMP1 = biological target: T3, Pro-MMP1 (Homo sapiens, UniProt P03956); assay: Binding to related MMP family member
T3 construct: MMP1, Pro-MMP1, MMP2

MMP16 = MMP16 (Homo sapiens, UniProt P51512); assay: Binding to related MMP family member
MMP1 [4] = biological target: T1, MMP1; assay: Effect on related MMP catalytic activity; type: biochemical; conditions: in vitro
Experimental: as §1

MMP2 [5] = biological target: T2, MMP2; assay: Effect on related MMP catalytic activity; type: biochemical; conditions: in vitro
Experimental: as §1

MMP9 = MMP9 (Homo sapiens, UniProt P14780); assay: Effect on related MMP catalytic activity; type: biochemical; conditions: in vitro
Experimental: as §1

MMP15 = MMP15 (Homo sapiens, UniProt P51511); assay: Binding to related MMP family member
Chain of MMP15 (P51511 132-669, species assumed): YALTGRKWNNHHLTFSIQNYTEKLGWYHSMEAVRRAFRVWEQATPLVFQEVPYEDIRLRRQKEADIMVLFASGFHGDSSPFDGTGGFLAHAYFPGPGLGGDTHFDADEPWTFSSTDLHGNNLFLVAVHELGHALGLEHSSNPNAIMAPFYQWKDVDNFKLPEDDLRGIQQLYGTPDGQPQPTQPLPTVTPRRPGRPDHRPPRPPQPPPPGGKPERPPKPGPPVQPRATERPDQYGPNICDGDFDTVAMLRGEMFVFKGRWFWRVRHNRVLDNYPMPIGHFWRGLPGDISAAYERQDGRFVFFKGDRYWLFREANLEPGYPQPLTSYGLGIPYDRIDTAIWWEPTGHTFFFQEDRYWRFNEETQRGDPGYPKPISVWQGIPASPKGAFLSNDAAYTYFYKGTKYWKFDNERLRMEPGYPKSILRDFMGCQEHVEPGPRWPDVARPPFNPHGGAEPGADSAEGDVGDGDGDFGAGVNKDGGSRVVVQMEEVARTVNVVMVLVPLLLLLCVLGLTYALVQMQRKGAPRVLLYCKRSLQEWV

T1 sequence (P03956 100-469, species assumed): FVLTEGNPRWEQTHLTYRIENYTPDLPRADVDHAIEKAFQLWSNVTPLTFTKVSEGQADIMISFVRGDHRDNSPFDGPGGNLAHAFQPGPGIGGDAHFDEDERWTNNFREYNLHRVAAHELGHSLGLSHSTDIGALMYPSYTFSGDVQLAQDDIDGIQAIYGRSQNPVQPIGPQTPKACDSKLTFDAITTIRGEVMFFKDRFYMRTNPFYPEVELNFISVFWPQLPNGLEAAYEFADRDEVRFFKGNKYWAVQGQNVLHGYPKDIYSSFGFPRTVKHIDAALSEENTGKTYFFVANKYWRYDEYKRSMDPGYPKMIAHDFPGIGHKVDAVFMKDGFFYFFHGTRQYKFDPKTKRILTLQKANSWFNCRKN
T2 sequence (P08253 110-660, species assumed): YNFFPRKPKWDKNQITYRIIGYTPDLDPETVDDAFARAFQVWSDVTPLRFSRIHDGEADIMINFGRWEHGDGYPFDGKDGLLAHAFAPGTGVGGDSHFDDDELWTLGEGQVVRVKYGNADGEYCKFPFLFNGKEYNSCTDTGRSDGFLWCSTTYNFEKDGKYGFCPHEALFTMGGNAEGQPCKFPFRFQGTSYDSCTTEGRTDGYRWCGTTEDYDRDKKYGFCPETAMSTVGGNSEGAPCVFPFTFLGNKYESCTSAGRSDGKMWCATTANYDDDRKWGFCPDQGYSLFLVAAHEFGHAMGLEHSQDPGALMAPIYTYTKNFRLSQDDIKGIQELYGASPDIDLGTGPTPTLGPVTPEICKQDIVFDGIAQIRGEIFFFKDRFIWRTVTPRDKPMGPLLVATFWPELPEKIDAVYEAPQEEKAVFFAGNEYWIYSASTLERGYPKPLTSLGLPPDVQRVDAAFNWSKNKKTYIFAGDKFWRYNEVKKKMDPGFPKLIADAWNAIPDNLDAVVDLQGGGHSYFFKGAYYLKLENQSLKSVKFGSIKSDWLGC
Chain of MMP9 (P14780 94-707, species assumed): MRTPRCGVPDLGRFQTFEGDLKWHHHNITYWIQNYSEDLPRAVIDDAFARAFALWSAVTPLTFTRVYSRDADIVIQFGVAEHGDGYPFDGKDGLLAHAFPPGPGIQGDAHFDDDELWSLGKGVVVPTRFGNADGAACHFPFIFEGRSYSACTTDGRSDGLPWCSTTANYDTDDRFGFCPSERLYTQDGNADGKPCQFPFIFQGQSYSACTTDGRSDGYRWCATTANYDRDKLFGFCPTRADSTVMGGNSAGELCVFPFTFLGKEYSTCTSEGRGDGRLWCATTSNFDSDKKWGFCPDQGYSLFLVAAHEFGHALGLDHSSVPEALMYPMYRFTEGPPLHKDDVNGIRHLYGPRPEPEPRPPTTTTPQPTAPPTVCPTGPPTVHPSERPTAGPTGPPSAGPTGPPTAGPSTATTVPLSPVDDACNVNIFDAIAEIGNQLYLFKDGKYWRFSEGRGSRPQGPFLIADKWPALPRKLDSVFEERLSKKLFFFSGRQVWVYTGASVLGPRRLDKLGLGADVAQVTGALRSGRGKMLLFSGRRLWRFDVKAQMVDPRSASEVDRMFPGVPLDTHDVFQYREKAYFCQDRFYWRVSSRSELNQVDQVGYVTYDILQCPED
Chain of MMP16 (P51512 120-607, species assumed): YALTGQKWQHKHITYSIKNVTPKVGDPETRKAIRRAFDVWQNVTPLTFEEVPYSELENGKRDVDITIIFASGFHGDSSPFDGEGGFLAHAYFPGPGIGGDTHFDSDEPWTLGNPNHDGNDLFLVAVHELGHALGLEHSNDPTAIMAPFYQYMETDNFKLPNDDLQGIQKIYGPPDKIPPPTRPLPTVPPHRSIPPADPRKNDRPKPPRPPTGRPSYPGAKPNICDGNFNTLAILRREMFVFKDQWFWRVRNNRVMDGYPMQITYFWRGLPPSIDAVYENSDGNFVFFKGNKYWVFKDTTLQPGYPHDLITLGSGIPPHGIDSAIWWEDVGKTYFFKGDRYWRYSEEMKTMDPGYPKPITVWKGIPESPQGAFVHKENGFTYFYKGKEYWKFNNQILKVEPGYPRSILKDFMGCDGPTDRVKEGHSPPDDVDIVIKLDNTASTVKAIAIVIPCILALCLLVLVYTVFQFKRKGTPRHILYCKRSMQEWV
Chain of MMP24 (Q9Y5R2 156-645, species assumed): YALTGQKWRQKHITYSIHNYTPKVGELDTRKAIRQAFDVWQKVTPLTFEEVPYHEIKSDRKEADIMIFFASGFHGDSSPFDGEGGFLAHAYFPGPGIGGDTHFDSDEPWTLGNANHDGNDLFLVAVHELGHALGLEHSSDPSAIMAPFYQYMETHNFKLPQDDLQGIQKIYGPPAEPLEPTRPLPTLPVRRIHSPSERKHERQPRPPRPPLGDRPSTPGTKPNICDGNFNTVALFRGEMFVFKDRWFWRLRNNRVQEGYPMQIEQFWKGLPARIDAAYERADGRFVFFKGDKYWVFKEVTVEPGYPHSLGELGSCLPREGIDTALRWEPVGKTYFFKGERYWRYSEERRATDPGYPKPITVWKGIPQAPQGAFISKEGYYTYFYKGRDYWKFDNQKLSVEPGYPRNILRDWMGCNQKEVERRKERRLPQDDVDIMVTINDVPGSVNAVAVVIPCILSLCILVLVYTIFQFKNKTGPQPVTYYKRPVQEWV
T3 sequence (P03956 20-469 limits assumed): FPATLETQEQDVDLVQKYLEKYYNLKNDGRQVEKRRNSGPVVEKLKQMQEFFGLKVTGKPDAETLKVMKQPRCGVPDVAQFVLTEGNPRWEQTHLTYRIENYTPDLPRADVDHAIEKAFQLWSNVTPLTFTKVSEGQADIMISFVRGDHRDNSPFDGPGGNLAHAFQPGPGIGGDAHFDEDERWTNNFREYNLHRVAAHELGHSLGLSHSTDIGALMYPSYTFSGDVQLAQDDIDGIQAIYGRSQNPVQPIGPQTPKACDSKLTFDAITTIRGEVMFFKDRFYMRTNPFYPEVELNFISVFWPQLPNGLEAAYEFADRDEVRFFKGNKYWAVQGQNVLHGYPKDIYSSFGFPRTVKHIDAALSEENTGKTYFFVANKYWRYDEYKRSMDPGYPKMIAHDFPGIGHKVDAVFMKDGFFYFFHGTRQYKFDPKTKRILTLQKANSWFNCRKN

Compound: C[C@H](NC(=O)CN(C)C(=O)CN(C)C(=O)CN(C)C(=O)CN(C)C(=O)CN(C)C(=O)CN(C)C(=O)CN(C)C(=O)CN(C)C(=O)CN(C)C(=O)CN(C)C(=O)CCN)C(=O)N[C@H]1CSCc2cc3cc(c2)CSC[C@H](NC(=O)[C@@H](C)NC(=O)[C@H](Cc2cccc4ccccc24)NC(=O)[C@H](CCC(=O)O)NC(=O)[C@H](CC(N)=O)NC(=O)[C@@H](C)NC1=O)C(=O)N[C@@H](CCC(=O)O)C(=O)N[C@@H](CC(=O)O)C(=O)N[C@@H](Cc1ccccc1)C(=O)N[C@@H](Cc1ccc(O)cc1)C(=O)N[C@@H](CC(=O)O)C(=O)N[C@@H](C(C)(C)C)C(=O)N[C@H](C(N)=O)CSC3 [N241] (H-[βAla][Sar][Sar][Sar][Sar][Sar][Sar][Sar][Sar][Sar][Sar]AC[dA]NE[1Nal][dA]CEDFYD[Tle]C-NH2; linker 13-19-26 via TBMB; N-terminus and C-terminus assumed)
- binding (MMP1 [1]): no binding
- binding (MMP24): no binding
- binding (MMP2 [2]): no binding
- binding (catalytic domain (MT1)): no binding
- impact on catalytic activity (MT1): no direct impact
- impact on cell migration or invasion [3]: no direct impact
- binding (Pro-MMP1): no binding
- binding (MMP16): no binding
- impact on catalytic activity (MMP1 [4]): no direct impact
- impact on catalytic activity (MMP2 [5]): no direct impact
- impact on catalytic activity (MMP9): no direct impact
- binding (MMP15): no binding

Source: patent publication US10441663B2, “Methods for treating cancer” (Bicycle Therapeutics Limited, priority 2016, dated 2019)
